These are literature values, as cited in paper PMC11949389 (Polish Journal of Microbiology, 2025).

≈ marks a conversion by molar mass, not a printed value. Like-named read-outs stand apart in the source and are kept apart here.

Data set [1] concerns Candida krusei. To be noted: Candida krusei; ref Sharifzadeh et al. 2019; Iraji et al. 2020; Biernasiuk et al. 2022; Stringaro et al. 2022.
The test system of data set [2] is Candida albicans. The settings on record: Candida albicans; ref Sharifzadeh et al. 2019; Iraji et al. 2020; Shaban et al. 2020; Stringaro et al. 2022; Biernasiuk et al. 2022.
Data set [3] concerns Candida tropicalis. The settings on record: Candida tropicalis; ref Iraji et al. 2020; Stringaro et al. 2022.
The subject of data set [4] is Candida dubliniensis. To be noted: ref Iraji et al. 2020.
The subject of data set [5] is Candida parapsilosis. The settings on record: ref Iraji et al. 2020, Biernasiuk et al. 2022.
For data set [6], the system named is Candida glabrata. To be noted: Candida glabrata; ref Sharifzadeh et al. 2019; Iraji et al. 2020; Biernasiuk et al. 2022; Stringaro et al. 2022.
Data set [7] has as its system Mupirocin-susceptible Staphylococcus aureus. The settings on record: ref Kwiatkowski et al. 2019.
The test system of data set [8] is Mupirocin-resistant Staphylococcus aureus. To be noted: ref Kwiatkowski et al. 2019.
The subject of data set [9] is Klebsiella pneumoniae. The settings on record: ref Sayout et al. 2020, de Souza et al. 2021, Kwiatkowski et al. 2022.
Data set [10] has as its system Acinetobacter baumannii. The settings on record: ref Sayout et al. 2020.
For data set [11], the system named is Escherichia coli. To be noted: Escherichia coli; ref Owen et al. 2019; Sayout et al. 2020; Noumi et al. 2023.
Data set [12] relates to Enterobacter cloacae. The settings on record: ref Sayout et al. 2020.
Data set [13] has as its system Staphylococcus aureus. To be noted: for MIC/Sensitivity: Staphylococcus aureus, ref Kwiatkowski et al. 2020, Sayout et al. 2020, Sousa Silveira et al. 2020, Macêdo et al. 2022, Noumi et al. 2023, Sharma et al. 2023; for tetracycline MIC: ref Sousa Silveira et al. (2020).
For data set [14], the system named is Enterobacter aerogenes. To be noted: ref Sayout et al. 2020.
Data set [15] relates to Klebsiella oxytoca. To be noted: ref Sayout et al. 2020.
Data set [16] relates to Salmonella spp. The settings on record: ref Sayout et al. 2020.
Data set [17] relates to Pseudomonas aeruginosa. To be noted: Pseudomonas aeruginosa; ref Owen et al. 2019; Sim et al. 2019; Noumi et al. 2023.
The test system of data set [18] is Methicillin-resistant Staphylococcus aureus. The settings on record: MRSA isolates, ref Kwiatkowski et al. (2020).
For data set [19], the system named is Vibrio anguillarum, and Vibrio harveyi. To be noted: ref Rossi et al. (2021).
For data set [20], the system named is Campylobacter jejuni.

Turning to `CC1CC[C@H](C(C)C)[C@@H](O)C1` (single isomer, unassigned; (+)) [(+)-Menthol], the MIC/Sensitivity is 100.0064 to 445.341 mg/mL in data set [1]; 221.8892 to 7125.456 mg/mL in data set [2]; 100.0064 to 445.341 mg/mL in [3]; 53.1284 to 3562.728 mg/mL in data set [4]; 53.1284 to 890.682 mg/mL in data set [5]; 26.5642 to 445.341 mg/mL in [6].

Consider `CC(C)=CCCC(C)CCO` (single isomer, unassigned; (-)) [(–)-Citronellol], for which the MIC/Sensitivity was 100.2625 to 1665.9 mg/mL in data set [1]; 49.36 to 1665.9 mg/mL in [2]; 24.68 to 100.2625 mg/mL in data set [3]; 24.68 to 208.2375 mg/mL in [4]; 49.36 to 416.475 mg/mL in data set [5]; 49.36 to 208.2375 mg/mL in data set [6].

On to `CC(C)=CCC[C@@H](C)CCO` [(+)-Citronellol], for which the MIC/Sensitivity in data set [1] was 100.2625 to 832.95 mg/mL; in data set [2], 49.36 to 1665.9 mg/mL; in data set [3], 24.68 to 100.2625 mg/mL; in data set [4], 24.68 to 208.2375 mg/mL; in [5], 49.36 to 416.475 mg/mL; in [6] it was 49.36 to 208.2375 mg/mL.

With `CC(C)[C@@H]1CC[C@@H](C)CC1=O` [(–)-Menthone], the MIC/Sensitivity in [1] is 3578.6 to 7157.2 mg/mL; in data set [7] it was 27.91 mg/mL (≈ 181 mM); in data set [2], 1789.3 to 28628.8 mg/mL; in data set [3], 1789.3 to 14314.4 mg/mL; in data set [4] it was 894.65 to 14314.4 mg/mL; in data set [8], 6980 µg/mL (≈ 45.3 mM). In addition, the MIC/Sensitivity in data set [5] is 894.65 to 14314.4 mg/mL; in data set [6] it was 1789.3 to 14314.4 mg/mL.

On to `CC1=CCC2CC1C2(C)C` (stereo not drawn) [(–)-α-Pinene], for which the MIC/Sensitivity in data set [1] was 858.249 to 1716.498 mg/mL; in [2], 858.249 to 54927.936 mg/mL; in [3] it was 6865.992 to 27463.968 mg/mL; in data set [4] it was 858.249 to 27463.968 mg/mL; in [5], 429.1245 to 1716.498 mg/mL; in data set [6], 858.249 to 54927.936 mg/mL.

Consider `C=C1C2CCC(C2)C1(C)C` (stereo not shown) [Camphene], for which the values for the MIC/Sensitivity in [9], in data set [10] and in data set [11] were 30.00 µg/mL (≈ 0.22 mM), 20.00 µg/mL (≈ 0.147 mM) and 15.00 µg/mL (≈ 0.11 mM), respectively.

On to `CC12CCC(CC1=O)C2(C)C` (stereo not shown) [Camphor], for which the MIC/Sensitivity in [9] was 5.08 µg/mL (≈ 0.0334 mM); in data set [12] it was 6.10 µg/mL (≈ 0.0401 mM); in [1] it was 246.6126 to 3957.98 mg/mL; in data set [10] it was 10.17 µg/mL (≈ 0.0668 mM); in data set [2], 494.7475 to 3957.98 mg/mL; in data set [3], 246.6126 to 989.495 mg/mL. In addition, the MIC/Sensitivity was 246.6126 to 1978.99 mg/mL in data set [4]; 7.63 µg/mL (≈ 0.0501 mM) in data set [13]; 15.25 µg/mL (≈ 0.1 mM) in data set [14]; 59.3697 to 1978.99 mg/mL in data set [5]; 7.63 µg/mL (≈ 0.0501 mM) in data set [11]; 10.17 µg/mL (≈ 0.0668 mM) in data set [15]. Besides, the MIC/Sensitivity was 59.3697 to 989.495 mg/mL in data set [6], 6.10 µg/mL (≈ 0.0401 mM) in [16] and 6.10 µg/mL (≈ 0.0401 mM) in [17].

For the molecule `C=C(C)C1CC=C(C)C(=O)C1` (stereo not shown) [Carvone], the MIC/Sensitivity in data set [9] is 15.17 µg/mL (≈ 0.101 mM); in data set [12], 9.10 µg/mL (≈ 0.0606 mM); in data set [10], 7.58 µg/mL (≈ 0.0505 mM); in [13] it was 11.38 µg/mL (≈ 0.0758 mM); in data set [14], 5.69 µg/mL (≈ 0.0379 mM); in data set [11], 11.38 µg/mL (≈ 0.0758 mM). The figures for the MIC/Sensitivity in [15], in [16] and in data set [17] were 11.38 µg/mL (≈ 0.0758 mM), 22.75 µg/mL (≈ 0.151 mM) and 9.10 µg/mL (≈ 0.0606 mM), respectively.

Regarding `C=CC(C)(CCC=C(C)C)OC(C)=O` (stereo not shown) [Linalyl acetate], the FICI in data set [18] (in combination with methicillin) is reported as 0.4; in data set [18] (in combination with penicillin G) it was 0.6. The MIC/Sensitivity in data set [7] was 450.5 mg/mL; in [13], 46900 µg/mL. The MIC in data set [13] (S. aureus, ref Kwiatkowski et al. (2020)) is 28,200–112,600 μg/ml.

As to `CC(C)[C@@H]1CC[C@@H](C)CC1=O` [Menthone], in data set [13], the MIC/Sensitivity was 27900 µg/mL (≈ 181 mM).

As for `C=CC(=C)CCC=C(C)C` [Myrcene], the MIC/Sensitivity is 15.50 µg/mL (≈ 0.114 mM) in [9], 7.75 µg/mL (≈ 0.0569 mM) in [12] and 1.94 µg/mL (≈ 0.0142 mM) in data set [11].

Take `CC(C)[C@]12CC(=O)[C@H](C)[C@H]1C2` [Thujone]: the MIC/Sensitivity in [1] was 919.4692 to 7355.7536 mg/mL; in data set [2], 459.7346 to 7355.7536 mg/mL; in [3], 919.4692 to 7355.7536 mg/mL; in data set [4], 919.4692 to 7355.7536 mg/mL; in [5], 3677.8768 to 14711.5072 mg/mL; in data set [6], 1838.9384 to 14711.5072 mg/mL.

As to `CC1CCC(C(C)C)C(O)C1` (stereo not shown) [menthol], the “activity at the tested concentrations” value in data set [19] is “no activity”.

On to `CN(C)[C@@H]1C(O)=C(C(N)=O)C(=O)[C@@]2(O)C(O)=C3C(=O)c4c(O)cccc4[C@@](C)(O)[C@H]3C[C@@H]12` [tetracycline, reference compound], for which the “tetracycline MIC” value was 114 µg/mL in [13] (S. aureus, before combination) and 101 µg/mL in data set [13] (S. aureus, combined with thymol).

On to `CC1=CCC2CC1C2(C)C` (stereo not drawn) [α-Pinene], for which the MIC/Sensitivity in data set [9] was 23.75 µg/mL (≈ 0.174 mM); in data set [12], 11.88 µg/mL (≈ 0.0872 mM); in data set [10], 11.88 µg/mL (≈ 0.0872 mM); in [13], 11.88 µg/mL (≈ 0.0872 mM); in [11] it was 11.88 µg/mL (≈ 0.0872 mM). Moreover, in [19], the “activity at the tested concentrations” value was “no activity”.

On to `C=C1CCC2CC1C2(C)C` (stereo not drawn) [β-Pinene], for which the MIC/Sensitivity was 10.13 µg/mL (≈ 0.0744 mM) in [9]; 5.06 µg/mL (≈ 0.0371 mM) in [12]; 103.5348 to 429.1245 mg/mL in data set [1]; 13.50 µg/mL (≈ 0.0991 mM) in [10]; 213.8811 to 13731.984 mg/mL in data set [2]; 103.5348 to 3432.996 mg/mL in data set [3]. For the same molecule, the MIC/Sensitivity in data set [4] was 103.5348 to 6865.992 mg/mL; in data set [13] it was 10.13 µg/mL (≈ 0.0744 mM); in data set [14], 20.25 µg/mL (≈ 0.149 mM); in [5], 213.8811 to 431.8491 mg/mL; in data set [11], 5.06 µg/mL (≈ 0.0371 mM); in data set [15] it was 13.50 µg/mL (≈ 0.0991 mM). Besides, the MIC/Sensitivity in [6] is 103.5348 to 1716.498 mg/mL; in [16] it was 8.10 µg/mL (≈ 0.0595 mM); in data set [17] it was 10.13 µg/mL (≈ 0.0744 mM).

Take `CC1=CCC(C(C)C)=CC1` [γ-Terpinene]: the MIC/Sensitivity in [9] is 4.88 µg/mL (≈ 0.0358 mM); in [12], 6.50 µg/mL (≈ 0.0477 mM); in data set [10], 4.88 µg/mL (≈ 0.0358 mM); in [14], 4.88 µg/mL (≈ 0.0358 mM); in data set [20] (Campylobacter jejuni, ref Šimunović et al. 2020) it was 1000 µg/mL (≈ 7.34 mM); in [15] it was 4.88 µg/mL (≈ 0.0358 mM). Further, in data set [16], the MIC/Sensitivity was 6.50 µg/mL (≈ 0.0477 mM). Further, the MIC in [20] (ref Šimunović et al. (2020)) is 1,000 μg/ml.

Consider (+)-α-Pinene, for which the MIC/Sensitivity in [1] is 51.7674 to 858.249 mg/mL; in data set [2] it was 51.7674 to 1716.498 mg/mL; in data set [3], 429.1245 to 1716.498 mg/mL; in [4], 103.5348 to 1716.498 mg/mL; in data set [5], 51.7674 to 429.1245 mg/mL; in data set [6], 51.7674 to 1716.498 mg/mL.

Regarding (–)-Limonene, the MIC/Sensitivity in [1] is 8.1738 to 429.1245 mg/mL; in data set [2], 8.1738 to 13731.984 mg/mL; in data set [3], 213.8811 to 1716.498 mg/mL; in data set [4], 12.2607 to 1716.498 mg/mL; in [5], 50.4051 to 213.8811 mg/mL; in data set [6] it was 50.4051 to 3432.996 mg/mL.
